Entries after “also recorded” stand apart in the source; their conditions may differ.
Columns and labels:
[1] = tested on: lentivirus; test: lentivirus inactivation by photosensitizer and UV light
[2] = tested on: recombinant adeno-associated virus (AAV); settings: reagent alone, room temperature, 2 hours
[3] = tested on: recombinant AAV; test: AAV particle size by dynamic light scattering; type: physicochemical
[4] = rats
[5] = tested on: MERS CoV; settings: riboflavin 50 micromolar and UV light, six minutes, plasma; cited from earlier work
[6] = tested on: SARS-CoV-2; test: SARS-CoV-2 inactivation in Mirasol device; settings: 50 μM riboflavin

Compound | time to inactivation of lentivirus ([1]; 1.5 mM psoralen and UV light) | infectious titer of recombinant AAV [2] | change in particle size distribution ([3]; 1.5 mM psoralen and UV light) | time to complete inactivation of lentivirus ([1]; 50 μM riboflavin in the presence of UV light) [min] | average hydrodynamic radius of viral aggregates ([3]; 50 μM riboflavin and UV light, later time points) | toxicity of residual riboflavin remaining after viral inactivation [4] | MERS coronavirus titers [5] | Log Reduction in viral titer ([6]; 100 Joules UV in 19 seconds, 100 mLs, limit of detection 1.0 Log per mL) | inactivation of SARS-CoV-2 ([6]; about 100 Joules UV, to the limit of detection)
O=c1ccc2cc3ccoc3cc2o1 [psoralen] | approximately 2 hours | reduce the infectious titer | No significant change in particle size distribution | – | – | – | – | – | –
Cc1cc2nc3c(=O)[nH]c(=O)nc-3n(C[C@H](O)[C@H](O)[C@H](O)CO)c2cc1C [riboflavin] | – | reduce the infectious titer | – | ≤ 20 | greater than 60 nm | does not induce toxicity | reduction | greater than 4.2 Log | Complete inactivation; also recorded: completely inactivated
